From patent publication US9815878B2, “Use of PEDF-derived polypeptides for preventing and/or ameliorating skin aging” (MacKay Memorial Hospital, priority 2012, dated 2017)

Key:
[1] = system: Human dermal fibroblasts (WS-1 cells); assay: Cell viability of WS-1 cells pretreated with peptide; assay type: cell-based; conditions: 100 nM for 24 hours, data not shown
From the text: (§1) According to our preliminary study, cell viability was greater than 95% relative to that of the control after exposure to 15 mJ/cm^2 UVB irradiation (data not shown). […] Therefore, the exposure dose was set at 15 mJ/cm^2 in the following experiment.

[2] = system: primary mouse dermal fibroblasts; assay: Cell viability of primary mouse dermal fibroblasts pretreated with peptide; assay type: cell-based; conditions: 100 nM for 24 hours, data not shown
From the text: as §1

Ac-SLGAEQRTESIIHRALYYDLISSPDIHGT-NH2 [29-mer]
cell viability [1]: did not cause any significant change in cell viability | cell viability [2]: did not cause any significant change in cell viability
